Literature values in US20090221688A1, “PHARMACEUTICAL COMPOSITIONS CONTAINING DOCETAXEL AND A DEGRADATION INHIBITOR AND A PROCESS FOR OBTAINING THE SAME” (Quiral Quimica DO Brasil S.A., priority 2006, published 2009).

Target: T1, recombinant human cytochrome P450 1B1 (hCYP1B1) (Homo sapiens, UniProt Q16678)
T1 sequence (Q16678 1-543): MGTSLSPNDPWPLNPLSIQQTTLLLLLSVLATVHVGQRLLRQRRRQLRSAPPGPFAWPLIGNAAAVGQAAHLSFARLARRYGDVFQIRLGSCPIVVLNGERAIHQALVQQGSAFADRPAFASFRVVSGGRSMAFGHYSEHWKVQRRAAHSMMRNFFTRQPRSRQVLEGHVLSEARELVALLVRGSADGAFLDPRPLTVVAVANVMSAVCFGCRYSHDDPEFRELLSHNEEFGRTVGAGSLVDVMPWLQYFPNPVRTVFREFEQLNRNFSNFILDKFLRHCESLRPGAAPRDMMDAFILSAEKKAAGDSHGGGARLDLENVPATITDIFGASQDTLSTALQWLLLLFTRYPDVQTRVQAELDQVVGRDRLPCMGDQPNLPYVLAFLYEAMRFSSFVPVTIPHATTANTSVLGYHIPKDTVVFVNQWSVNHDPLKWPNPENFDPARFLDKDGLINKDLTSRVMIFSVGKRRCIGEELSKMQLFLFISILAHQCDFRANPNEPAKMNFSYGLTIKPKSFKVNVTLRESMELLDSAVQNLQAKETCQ

Row | Structure (SMILES) | Increase of the activity of hCYP1B1 (concentration of 10 μM) | Metabolism by hCYP1B1 in vitro (EROD activity as a measure)
1 | CC(=O)O[C@@]12COC1C[C@@H](O)[C@@]1(C)C(=O)[C@H](O)C3=C(C)[C@@H](OC(=O)[C@H](O)[C@@H](NC(=O)OC(C)(C)C)c4ccccc4)C[C@@](O)([C@@H](OC(=O)c4ccccc4)[C@@H]12)C3(C)C (stereo partly drawn) [7-epi-docetaxel (II), 4-acetoxy-2-α-benzoyloxy-5β-20-epoxy-1,7-α-10-β-trihydroxy-9-oxo-tax-11-en-13α-il (2R,3S) 3-tert-butoxycarbonylamino-2-hydroxy-3-phenylpropionate ester] | more than 7 fold | 
2 | CC(=O)O[C@@]12COC1C[C@H](O)[C@@]1(C)C(=O)[C@H](O)C3=C(C)[C@@H](OC(=O)[C@H](O)[C@@H](NC(=O)OC(C)(C)C)c4ccccc4)C[C@@](O)([C@@H](OC(=O)c4ccccc4)[C@@H]12)C3(C)C (stereo partly drawn) [docetaxel, 4-acetoxy-2α-benzoyloxy-5β-20-epoxy-1,7-β-10-β-trihydroxy-9-oxo-tax-11-en-13α-il (2R,3S) 3-tert-butoxycarbonylamino-2-hydroxy-3-phenylpropionate ester] |  | not metabolized
